From ChEMBL document CHEMBL1201862, “PubChem BioAssay data set” (2004)
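Assay format: 96-well plates, 48-hour exposure. The concentration for 50% growth inhibition is given as GI50.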 Calls of active or inactive are those of the source. Rule as the data show it: active = GI50 up to about 1.1 µM and inactive = higher.

Assays:
Assay in all cases: inhibition of tumour cell growth, NCI panel, 48 h
A549 = system: A549
CCRF-CEM = system: CCRF-CEM
HCT-116 = system: HCT-116
HOP-62 = system: HOP-62
K562 = system: K562
LOX IMVI = system: LOX IMVI
M14 = system: M14
MDA-MB-231 = system: MDA-MB-231
Malme-3M = system: Malme-3M
OVCAR-4 = system: OVCAR-4
SF-268 = system: SF-268
SF-539 = system: SF-539
SK-MEL-28 = system: SK-MEL-28
SK-OV-3 = system: SK-OV-3
SN12C = system: SN12C
SW-620 = system: SW-620
TK-10 = system: TK-10
U-251 = system: U-251
SNB-75 = system: SNB-75

Row | Compound | GI50 (A549) | GI50 (CCRF-CEM) | GI50 (HCT-116) | GI50 (HOP-62) | GI50 (K562) | GI50 (LOX IMVI) | GI50 (M14) | GI50 (MDA-MB-231) | GI50 (Malme-3M) | GI50 (OVCAR-4) | GI50 (SF-268) | GI50 (SF-539) | GI50 (SK-MEL-28) | GI50 (SK-OV-3) | GI50 (SN12C) | GI50 (SW-620) | GI50 (TK-10) | GI50 (U-251) | GI50 (SNB-75)
1 | COC1=C(OC)C(=O)C(Cc2c(C)nc3sccn23)=C(C)C1=O | 11 µM (inactive) | 3.56 µM (inactive) | 19.3 µM (inactive) | 17.5 µM (inactive) | 18.7 µM (inactive) | 11.7 µM (inactive) | 17 µM (inactive) | 13.1 µM (inactive) | 10.9 µM (inactive) | 2.92 µM (inactive) | 18.8 µM (inactive) | 16.5 µM (inactive) | 11 µM (inactive) | 13.7 µM (inactive) | 15.8 µM (inactive) | 14.8 µM (inactive) | 16.4 µM (inactive) | 15.6 µM (inactive) | –
2 | Nc1nc(N)c2ncn(Cc3ccccc3)c2n1 | > 100 µM (inactive) | > 100 µM (inactive) | > 100 µM (inactive) | > 100 µM (inactive) | – | – | > 100 µM (inactive) | > 100 µM (inactive) | > 100 µM (inactive) | > 100 µM (inactive) | > 100 µM (inactive) | > 100 µM (inactive) | > 100 µM (inactive) | > 100 µM (inactive) | > 100 µM (inactive) | > 100 µM (inactive) | > 100 µM (inactive) | > 100 µM (inactive) | 0.0295 µM (active)
3 | FC(F)(F)c1ccccc1/C=N/C12CC3CC(CC(C3)C1)C2 | > 100 µM (inactive) | – | > 100 µM (inactive) | > 100 µM (inactive) | > 100 µM (inactive) | > 100 µM (inactive) | > 100 µM (inactive) | – | > 100 µM (inactive) | > 100 µM (inactive) | > 100 µM (inactive) | > 100 µM (inactive) | > 100 µM (inactive) | > 100 µM (inactive) | > 100 µM (inactive) | > 100 µM (inactive) | > 100 µM (inactive) | > 100 µM (inactive) | 86.1 µM (inactive)
4 | O=C1CC(c2ccccc2)n2cccc21 (stereo not drawn) | > 100 µM (inactive) | > 100 µM (inactive) | > 100 µM (inactive) | > 100 µM (inactive) | > 100 µM (inactive) | > 100 µM (inactive) | > 100 µM (inactive) | > 100 µM (inactive) | – | > 100 µM (inactive) | > 100 µM (inactive) | > 100 µM (inactive) | > 100 µM (inactive) | > 100 µM (inactive) | > 100 µM (inactive) | > 100 µM (inactive) | > 100 µM (inactive) | > 100 µM (inactive) | > 100 µM (inactive)
5 | Fc1ccc(/C=C2\COCC3=C2NC(=S)NC3c2ccc(F)cc2)cc1 (stereo not drawn) | – | 19 µM (inactive) | 17.3 µM (inactive) | 17.6 µM (inactive) | 19 µM (inactive) | 19.9 µM (inactive) | 16.4 µM (inactive) | 18.5 µM (inactive) | – | 18.1 µM (inactive) | 17.7 µM (inactive) | 20 µM (inactive) | – | 31 µM (inactive) | 18.5 µM (inactive) | 19.7 µM (inactive) | 22.1 µM (inactive) | 20.5 µM (inactive) | 22.2 µM (inactive)
6 | COc1ccc(N[S+]([O-])c2ccc(Cl)cc2)cc1 (stereo not drawn) | 23.5 µM (inactive) | 50.5 µM (inactive) | 14.5 µM (inactive) | 61.7 µM (inactive) | 34.4 µM (inactive) | 31 µM (inactive) | 94 µM (inactive) | 50.4 µM (inactive) | 24.3 µM (inactive) | > 100 µM (inactive) | 4 µM (inactive) | 11.9 µM (inactive) | > 100 µM (inactive) | – | > 100 µM (inactive) | 49.1 µM (inactive) | > 100 µM (inactive) | 11.8 µM (inactive) | –
7 | N#Cc1cc(C#N)c(Cl)nc1N | > 10 µM (inactive) | > 10 µM (inactive) | > 10 µM (inactive) | > 10 µM (inactive) | 7.53 µM (inactive) | > 10 µM (inactive) | – | – | > 10 µM (inactive) | > 10 µM (inactive) | > 10 µM (inactive) | > 10 µM (inactive) | > 10 µM (inactive) | > 10 µM (inactive) | > 10 µM (inactive) | > 10 µM (inactive) | > 10 µM (inactive) | > 10 µM (inactive) | > 10 µM (inactive)
8 | Cn1c(=O)c2c(n(C)c1=O)n1c(=O)c3ccccc3nc1n2C | > 100 µM (inactive) | > 100 µM (inactive) | > 100 µM (inactive) | 39.9 µM (inactive) | > 100 µM (inactive) | 83.9 µM (inactive) | > 100 µM (inactive) | > 100 µM (inactive) | – | > 100 µM (inactive) | 72.3 µM (inactive) | > 100 µM (inactive) | > 100 µM (inactive) | > 100 µM (inactive) | > 100 µM (inactive) | > 100 µM (inactive) | > 100 µM (inactive) | 83.6 µM (inactive) | 39.4 µM (inactive)
